Measurements reported in ChEMBL document CHEMBL3885861, “Open TG-GATES”.

Organism: Rattus norvegicus
Assay: Open TG-GATES - Regimen: Single
Assay type: toxicity, organism-based, Sprague-Dawley
Design: regimen Single, gender Male, age 6 weeks
Details: in vivo, po, route gavage; for APTT / Bas / Eos / Fbg / Hb / Ht / Lym / MCH / MCHC / MCV / Mono / Neu / PT / Plat / RBC / Ret / WBC: tissue Blood; for KIDNEY_L / KIDNEY_R / KIDNEY_TOTAL: tissue Kidney; for LIVER: tissue Liver; for A/G / ALP / ALT / AST / BUN / CRE / Ca / Cl / DBIL / GLC / IP / K / LDH / Na / PL / RALB / TBIL / TC / TG / TP / gamma-GTP: tissue Plasma
[1] = 30 mg/kg, 3 h, dose level Middle
[2] = 30 mg/kg, 6 h, dose level Middle
[3] = 30 mg/kg, 9 h, dose level Middle
[4] = 30 mg/kg, 24 h, dose level Middle
[5] = 100 mg/kg, 3 h, dose level High
[6] = 100 mg/kg, 6 h, dose level High
[7] = 100 mg/kg, 9 h, dose level High
[8] = 100 mg/kg, 24 h, dose level High

## CN(C)CCN(Cc1cccs1)c1ccccn1
[1]
  TERMINAL_BW: 182 g
  APTT: 21.9 s
  Bas: 0%
  Eos: 0.6%
  Fbg: 308.2 mg/dL
  Hb: 13 g/dL
  Ht: 39.6%
  Lym: 80.2%
  MCH: 21.6 pg
  MCHC: 32.8%
  MCV: 65.9 fL
  Mono: 2.2%
  Neu: 15.8%
  PT: 16.1 s
  Plat: 115.9 x10_4/uL
  RBC: 603 x10_4/ul
  Ret: 7.3%
  WBC: 81.5 x10_2/uL
  KIDNEY_L: 0.8 g
  KIDNEY_R: 0.9 g
  KIDNEY_TOTAL: 1.7 g
  LIVER: 8.3 g
  A/G: 1.3
  ALP: 1624.8 IU/L
  ALT: 41.4 IU/L
  AST: 73.6 IU/L
  BUN: 13 mg/dL
  CRE: 0.2 mg/dL
  Ca: 10.5 mg/dL
  Cl: 107.6 meq/L
  DBIL: 0 mg/dL
  GLC: 179 mg/dL
  IP: 8.4 mg/dL
  K: 4.4 meq/L
  LDH: 201.8 IU/L
  Na: 142.8 meq/L
  PL: 140.4 mg/dL
  RALB: 3 g/dL
  TBIL: 0.016 mg/dL
  TC: 75.4 mg/dL
  TG: 53.4 mg/dL
  TP: 5.4 g/dL
  gamma-GTP: 1 IU/L
[2]
  TERMINAL_BW: 186.2 g
  APTT: 21.5 s
  Bas: 0%
  Eos: 0.6%
  Fbg: 292.6 mg/dL
  Hb: 12.6 g/dL
  Ht: 38.7%
  Lym: 74.6%
  MCH: 21 pg
  MCHC: 32.7%
  MCV: 64 fL
  Mono: 2%
  Neu: 22%
  PT: 16.9 s
  Plat: 117.9 x10_4/uL
  RBC: 604 x10_4/ul
  Ret: 7.6%
  WBC: 62.8 x10_2/uL
  KIDNEY_L: 0.8 g
  KIDNEY_R: 0.9 g
  KIDNEY_TOTAL: 1.7 g
  LIVER: 8 g
  A/G: 1.2
  ALP: 1536.2 IU/L
  ALT: 34.2 IU/L
  AST: 71.2 IU/L
  BUN: 12.8 mg/dL
  CRE: 0.1 mg/dL
  Ca: 10.5 mg/dL
  Cl: 106.2 meq/L
  DBIL: 0 mg/dL
  GLC: 173 mg/dL
  IP: 9.2 mg/dL
  K: 4.5 meq/L
  LDH: 178 IU/L
  Na: 141.6 meq/L
  PL: 142.4 mg/dL
  RALB: 2.8 g/dL
  TBIL: 0.024 mg/dL
  TC: 82.6 mg/dL
  TG: 53 mg/dL
  TP: 5.3 g/dL
  gamma-GTP: 1 IU/L
[3]
  TERMINAL_BW: 183.7 g
  APTT: 20.6 s
  Bas: 0%
  Eos: 0.6%
  Fbg: 290.8 mg/dL
  Hb: 12.9 g/dL
  Ht: 38.4%
  Lym: 74%
  MCH: 21.1 pg
  MCHC: 33.5%
  MCV: 63.1 fL
  Mono: 2.2%
  Neu: 22.2%
  PT: 15.5 s
  Plat: 124.7 x10_4/uL
  RBC: 608.8 x10_4/ul
  Ret: 7.7%
  WBC: 66.5 x10_2/uL
  KIDNEY_L: 0.8 g
  KIDNEY_R: 0.8 g
  KIDNEY_TOTAL: 1.7 g
  LIVER: 7.5 g
  A/G: 1.2
  ALP: 1582.8 IU/L
  ALT: 35.8 IU/L
  AST: 69.8 IU/L
  BUN: 11.2 mg/dL
  CRE: 0.1 mg/dL
  Ca: 10.3 mg/dL
  Cl: 106.8 meq/L
  DBIL: 0.002 mg/dL
  GLC: 166.6 mg/dL
  IP: 9.9 mg/dL
  K: 4.5 meq/L
  LDH: 205.6 IU/L
  Na: 141.8 meq/L
  PL: 131 mg/dL
  RALB: 3 g/dL
  TBIL: 0.022 mg/dL
  TC: 77.4 mg/dL
  TG: 42.2 mg/dL
  TP: 5.5 g/dL
  gamma-GTP: 1 IU/L
[4]
  TERMINAL_BW: 198 g
  APTT: 20 s
  Bas: 0%
  Eos: 0.8%
  Fbg: 308 mg/dL
  Hb: 12.9 g/dL
  Ht: 38.8%
  Lym: 84.4%
  MCH: 20.6 pg
  MCHC: 33.2%
  MCV: 62.1 fL
  Mono: 1.6%
  Neu: 12.4%
  PT: 16.8 s
  Plat: 124 x10_4/uL
  RBC: 625.6 x10_4/ul
  Ret: 6.8%
  WBC: 67.2 x10_2/uL
  KIDNEY_L: 0.9 g
  KIDNEY_R: 0.9 g
  KIDNEY_TOTAL: 1.8 g
  LIVER: 9.3 g
  A/G: 1.2
  ALP: 1883 IU/L
  ALT: 46.4 IU/L
  AST: 74.8 IU/L
  BUN: 15.4 mg/dL
  CRE: 0.2 mg/dL
  Ca: 10.9 mg/dL
  Cl: 106 meq/L
  DBIL: 0.004 mg/dL
  GLC: 179.8 mg/dL
  IP: 7.3 mg/dL
  K: 4.4 meq/L
  LDH: 254.8 IU/L
  Na: 142.4 meq/L
  PL: 143.2 mg/dL
  RALB: 3 g/dL
  TBIL: 0.008 mg/dL
  TC: 73.4 mg/dL
  TG: 124.6 mg/dL
  TP: 5.5 g/dL
  gamma-GTP: 1.2 IU/L
[5]
  TERMINAL_BW: 184.9 g
  APTT: 21.5 s
  Bas: 0%
  Eos: 0.8%
  Fbg: 290.4 mg/dL
  Hb: 13.2 g/dL
  Ht: 40.2%
  Lym: 74%
  MCH: 20.6 pg
  MCHC: 32.9%
  MCV: 62.8 fL
  Mono: 2%
  Neu: 22.2%
  PT: 16.3 s
  Plat: 121.5 x10_4/uL
  RBC: 640.8 x10_4/ul
  Ret: 7.2%
  WBC: 60.8 x10_2/uL
  KIDNEY_L: 0.8 g
  KIDNEY_R: 0.9 g
  KIDNEY_TOTAL: 1.7 g
  LIVER: 8 g
  A/G: 1.2
  ALP: 1601.8 IU/L
  ALT: 54.6 IU/L
  AST: 82.2 IU/L
  BUN: 10.8 mg/dL
  CRE: 0.1 mg/dL
  Ca: 10.3 mg/dL
  Cl: 106.6 meq/L
  DBIL: 0.002 mg/dL
  GLC: 185 mg/dL
  IP: 8.3 mg/dL
  K: 4.3 meq/L
  LDH: 258.8 IU/L
  Na: 142.4 meq/L
  PL: 121.4 mg/dL
  RALB: 2.9 g/dL
  TBIL: 0.012 mg/dL
  TC: 69.8 mg/dL
  TG: 36 mg/dL
  TP: 5.4 g/dL
  gamma-GTP: 1 IU/L
[6]
  TERMINAL_BW: 183.8 g
  APTT: 21.3 s
  Bas: 0%
  Eos: 0.4%
  Fbg: 282.2 mg/dL
  Hb: 13.1 g/dL
  Ht: 39.5%
  Lym: 76%
  MCH: 21.6 pg
  MCHC: 33.3%
  MCV: 64.8 fL
  Mono: 2.4%
  Neu: 20.6%
  PT: 16.6 s
  Plat: 120.5 x10_4/uL
  RBC: 610 x10_4/ul
  Ret: 8.4%
  WBC: 73.4 x10_2/uL
  KIDNEY_L: 0.8 g
  KIDNEY_R: 0.8 g
  KIDNEY_TOTAL: 1.7 g
  LIVER: 7.5 g
  A/G: 1.1
  ALP: 1538 IU/L
  ALT: 51.2 IU/L
  AST: 90.2 IU/L
  BUN: 14.6 mg/dL
  CRE: 0.2 mg/dL
  Ca: 10.5 mg/dL
  Cl: 107.4 meq/L
  DBIL: 0.004 mg/dL
  GLC: 170.2 mg/dL
  IP: 9.4 mg/dL
  K: 4.5 meq/L
  LDH: 259.2 IU/L
  Na: 141.8 meq/L
  PL: 110 mg/dL
  RALB: 2.8 g/dL
  TBIL: 0.02 mg/dL
  TC: 64.8 mg/dL
  TG: 33.4 mg/dL
  TP: 5.2 g/dL
  gamma-GTP: 1 IU/L
[7]
  TERMINAL_BW: 183.7 g
  APTT: 21.3 s
  Bas: 0%
  Eos: 0.8%
  Fbg: 284.6 mg/dL
  Hb: 13.2 g/dL
  Ht: 39.6%
  Lym: 72.2%
  MCH: 21.1 pg
  MCHC: 33.3%
  MCV: 63.5 fL
  Mono: 3.6%
  Neu: 22.6%
  PT: 16.2 s
  Plat: 122.3 x10_4/uL
  RBC: 624.2 x10_4/ul
  Ret: 7.6%
  WBC: 71.6 x10_2/uL
  KIDNEY_L: 0.8 g
  KIDNEY_R: 0.9 g
  KIDNEY_TOTAL: 1.7 g
  LIVER: 7.8 g
  A/G: 1.2
  ALP: 1538 IU/L
  ALT: 60.2 IU/L
  AST: 100.6 IU/L
  BUN: 11 mg/dL
  CRE: 0.1 mg/dL
  Ca: 10.1 mg/dL
  Cl: 107.6 meq/L
  DBIL: 0 mg/dL
  GLC: 172.8 mg/dL
  IP: 9.7 mg/dL
  K: 4.2 meq/L
  LDH: 233.6 IU/L
  Na: 141.8 meq/L
  PL: 117 mg/dL
  RALB: 2.9 g/dL
  TBIL: 0.022 mg/dL
  TC: 68 mg/dL
  TG: 35 mg/dL
  TP: 5.3 g/dL
  gamma-GTP: 1.2 IU/L
[8]
  TERMINAL_BW: 193.3 g
  APTT: 20.8 s
  Bas: 0%
  Eos: 0.8%
  Fbg: 275.2 mg/dL
  Hb: 13 g/dL
  Ht: 39.4%
  Lym: 73.2%
  MCH: 20.7 pg
  MCHC: 32.9%
  MCV: 62.9 fL
  Mono: 2.8%
  Neu: 22.2%
  PT: 17.3 s
  Plat: 114.4 x10_4/uL
  RBC: 627 x10_4/ul
  Ret: 7%
  WBC: 61.6 x10_2/uL
  KIDNEY_L: 0.8 g
  KIDNEY_R: 0.9 g
  KIDNEY_TOTAL: 1.7 g
  LIVER: 9.1 g
  A/G: 1.3
  ALP: 1813.6 IU/L
  ALT: 68.4 IU/L
  AST: 109.6 IU/L
  BUN: 16 mg/dL
  CRE: 0.2 mg/dL
  Ca: 10.7 mg/dL
  Cl: 106.6 meq/L
  DBIL: 0.004 mg/dL
  GLC: 172 mg/dL
  IP: 7.8 mg/dL
  K: 4.4 meq/L
  LDH: 260.2 IU/L
  Na: 143.2 meq/L
  PL: 136 mg/dL
  RALB: 2.9 g/dL
  TBIL: 0.01 mg/dL
  TC: 70.8 mg/dL
  TG: 65.2 mg/dL
  TP: 5.2 g/dL
  gamma-GTP: 1 IU/L
